Measurements taken from patent US10017480B2, “Compounds having a selective PDE4D inhibiting activity” (UNIVERSITÂ DEGLI STUDI DI GENOVA, priority 2014, dated 2018).
Where “and” joins values, the source holds several entries; their conditions need not be identical. Identical values can stand only once. Counter-ions that a name gives are not always drawn. Like-named read-outs stand apart in the source and are kept apart here.

Columns and labels:
[1] = target: PDE4D3 (Homo sapiens, UniProt Q08499); assay: PDE4D3 enzyme inhibition (IMAP); format: biochemical
Protocol: (§1) Compound's evaluation on PDE4D3, PDE4A4, PDE4B2 and PDE4C2 enzyme assays were performed by Scottish Biomedical (Glasgow, Scotland, UK) using recombinant human PDE enzymes expressed in a baculoviral system. The preliminary screening assays were performed by the IMAP technology (Molecular Devices), which is based on the high affinity binding of phosphate by immobilized metal coordination complexes on nanoparticles. The binding reagent complexes with phosphate groups on nucleotide monophosphate generated from cyclic nucleotides (cAMP) through phosphodiesterases. With fluorescence polarization detection, binding causes a change in the rate of the molecular motion of the phosphate bearing molecule and results in an increase in the fluorescence polarization value observed for the fluorescent label attached to the substrate. […] All compounds were solved in DMSO at 10^−2 M concentration and then diluted with water to the final suitable concentrations. All synthesized compounds were tested preliminary on PDE4D3 at 10^−5 M concentration, in duplicate. Results are expressed as a percent inhibition of control activity (see table 1).
IC50 values are reported at μM concentration in table 1. […] The results are reported (as percent of inhibition at 10 μM concentration) in Table 1.

[2] = target: T1, PDE4C2 (Homo sapiens, UniProt Q08493); assay: PDE4C2 enzyme inhibition (IMAP); format: biochemical
T1 construct: purchased Scottish Biomedical (Glasgow, Scotland, UK); host or cells: baculoviral system
Protocol: as §1
The IC50 values obtained for the reference compounds are within accepted limits of historic averages obtained (0.5 log unit). IC50 values are reported at μM concentration in table 1. […] The results are reported (as percent of inhibition at 10 μM concentration) in Table 1.

Chain of PDE4D3 (Q08499 1-673 isoform Q08499-2): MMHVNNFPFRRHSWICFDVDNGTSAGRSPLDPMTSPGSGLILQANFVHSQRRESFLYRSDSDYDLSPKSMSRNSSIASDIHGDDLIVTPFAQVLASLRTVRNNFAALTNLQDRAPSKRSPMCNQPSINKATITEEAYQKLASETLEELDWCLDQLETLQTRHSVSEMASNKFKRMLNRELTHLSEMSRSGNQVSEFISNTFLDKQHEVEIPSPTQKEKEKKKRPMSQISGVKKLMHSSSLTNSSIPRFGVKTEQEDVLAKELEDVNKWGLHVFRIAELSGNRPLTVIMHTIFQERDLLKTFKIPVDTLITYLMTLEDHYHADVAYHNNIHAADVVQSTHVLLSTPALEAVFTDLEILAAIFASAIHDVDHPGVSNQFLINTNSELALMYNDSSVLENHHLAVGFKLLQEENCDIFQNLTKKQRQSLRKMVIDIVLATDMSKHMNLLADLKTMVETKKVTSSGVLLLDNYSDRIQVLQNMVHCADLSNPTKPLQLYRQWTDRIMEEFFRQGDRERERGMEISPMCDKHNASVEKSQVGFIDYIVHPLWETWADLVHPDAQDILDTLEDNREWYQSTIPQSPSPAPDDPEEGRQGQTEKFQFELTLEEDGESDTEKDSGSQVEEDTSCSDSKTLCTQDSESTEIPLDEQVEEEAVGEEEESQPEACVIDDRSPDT
T1 sequence (Q08493 107-712): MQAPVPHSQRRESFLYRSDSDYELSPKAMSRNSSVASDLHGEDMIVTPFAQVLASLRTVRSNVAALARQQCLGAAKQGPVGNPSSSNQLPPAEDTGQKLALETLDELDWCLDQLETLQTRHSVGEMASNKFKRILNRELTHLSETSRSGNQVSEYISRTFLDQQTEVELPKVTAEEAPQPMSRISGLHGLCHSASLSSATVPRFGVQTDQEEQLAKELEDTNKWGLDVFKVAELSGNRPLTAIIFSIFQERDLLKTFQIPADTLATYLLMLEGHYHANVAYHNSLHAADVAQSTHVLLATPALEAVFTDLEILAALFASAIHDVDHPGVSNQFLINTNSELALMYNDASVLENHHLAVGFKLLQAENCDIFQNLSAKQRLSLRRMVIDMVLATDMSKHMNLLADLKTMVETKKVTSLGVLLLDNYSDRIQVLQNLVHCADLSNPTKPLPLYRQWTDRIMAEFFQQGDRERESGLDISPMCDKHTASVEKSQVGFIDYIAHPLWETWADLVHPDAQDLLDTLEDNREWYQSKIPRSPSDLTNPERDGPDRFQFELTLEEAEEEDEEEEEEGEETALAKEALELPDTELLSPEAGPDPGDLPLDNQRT

melting point | PDE4D3 % inib at 10 μM ([1]; 10 μM, in duplicate) [%] | PDE4D3 % inib at 10 μM [1] [%] | PDE4C2 % inib at 10 μM [2] [%] | SMILES
175 °C (dec.) | – | – | – | COc1ccc(-c2cc(C(=O)CN3CCOCC3)on2)cc1OC1CCCC1 (as salt: hydrochloride) [XVa, 1-{3-[3-(Cyclopentyloxy)-4-methoxyphenyl]isoxazol-5-yl}-2-morpholin-4-ylethanone hydrochloride]
188 to 189 °C | – | – | – | COc1ccc(-c2ccn(CC(O)CN3CC(C)OC(C)C3)n2)cc1OC1CCCC1 (stereo not drawn) (as salt: salt) [XVIIIb, 1-{3-[3-(Cyclopentyloxy)-4-methoxyphenyl]-1H-pyrazol-1-yl}-3-(2,6-dimethylmorpholin-4-yl)propan-2-ol dihydrocloride]
115 to 116 °C | 21 | – | – | COc1ccc(C2=NOC(C(=O)N3CCOCC3)C2)cc1OC1CCCC1 (stereo not drawn) [XIIIa, 4-({3-[3-(Cyclopentyloxy)-4-methoxyphenyl]-4,5-dihydroisoxazol-5-yl}carbonyl)morpholine]
127 to 129 °C | 29 | – | – | COc1ccc(C2=NOC(C(=O)N3CC(C)OC(C)C3)C2)cc1OC1CCCC1 (stereo not drawn) [XIIIb, 4-({3-[3-(Cyclopentyloxy)-4-methoxyphenyl]-4,5-dihydroisoxazol-5-yl}carbonyl)-2,6-dimethylmorpholine]
134 °C | 26 | – | – | COc1ccc(C2=NOC(C(=O)N3CCC(O)CC3)C2)cc1OC1CCCC1 (stereo not drawn) [XIIIc, 1-({3-[3-(Cyclopentyloxy)-4-methoxyphenyl]4,5-dihydroisoxazol-5-yl}carbonyl)piperidin-4-ol]
126 to 127 °C | 15 | – | – | COc1ccc(C2=NOC(C(=O)N3CCCC3)C2)cc1OC1CCCC1 (stereo not drawn) [XIIId, 3-[3-(Cyclopentyloxy)-4-methoxyphenyl]-5-(pyrrolidin-1-ylcarbonyl)-4,5-dihydroisoxazole]
130 °C | 8 | – | – | COc1ccc(C2=NOC(C(=O)N3CCCCC3)C2)cc1OC1CCCC1 (stereo not drawn) [XIIIe, 1-({3-[3-(Cyclopentyloxy)-4-methoxyphenyl]-4,5-dihydroisoxazol-5-yl}carbonyl)piperidine]
144 °C and 144 to 145 °C | 29 | – | – | COc1ccc(C2=NOC(CC(=O)N3CCOCC3)C2)cc1OC1CCCC1 (stereo not drawn) [XIVa, 4-({3-[3-(Cyclopentyloxy)-4-methoxyphenyl]-4,5-dihydroisoxazol-5-yl}acetyl)morpholine]
134 °C | 30 | – | – | COc1ccc(C2=NOC(CC(=O)N3CCC(O)CC3)C2)cc1OC1CCCC1 (stereo not drawn) [XIVc, 1-({3-[3-(Cyclopentyloxy)-4-methoxyphenyl]-4,5-dihydroisoxazol-5-yl}acetyl)piperidin-4-ol]
104 to 106 °C | 40 | – | – | COc1ccc(C2=NOC(CC(=O)N3CCCCC3)C2)cc1OC1CCCC1 (stereo not drawn) [XIVe, 1-({3-[3-(Cyclopentyloxy)-4-methoxyphenyl]-4,5-dihydroisoxazol-5-yl}acetyl)piperidine]
108 to 111 °C | 23 | – | – | COc1ccc(C2=NOC(CC(=O)N3CCNCC3)C2)cc1OC1CCCC1 (stereo not drawn) [XIVf, 1-({3-[3-(Cyclopentyloxy)-4-methoxyphenyl]-4,5-dihydroisoxazol-5-yl}acetyl)piperazine]
– | 2 | – | – | COc1ccc(-c2ccn(CC(O)CN3CCC(O)CC3)n2)cc1OC1CCCC1 (stereo not drawn) [XVIIIc, 1-(3-{3-[3-(cyclopentyloxy)-4-methoxyphenyl]4H-pyrazol-1-yl}-2-hydroxypropyl)piperidin-4-ol]
100 to 101 °C | 41 | – | – | COc1ccc(-c2cc(C(=O)N3CCOCC3)on2)cc1OC1CCCC1 [XVIIa, 4-({3-[3-(Cyclopentyloxy)-4-methoxyphenyl]isoxazol-5-yl}carbonyl)morpholine]
152 to 153 °C | 35 | – | – | COc1ccc(-c2cc(C(=O)N3CC(C)OC(C)C3)on2)cc1OC1CCCC1 (stereo not drawn) [XVIIb, 4-({3-[3-(Cyclopentyloxy)-4-methoxyphenyl]isoxazol-5-yl}carbonyl)-2,6-dimethylmorpholine]
136 to 137 °C | 38 | – | – | COc1ccc(-c2cc(C(O)CN3CCOCC3)on2)cc1OC1CCCC1 (stereo not drawn) [XVIa, 1-{3-[3-(Cyclopentyloxy)-4-methoxyphenyl]isoxazol-5-yl}-2-morpholin-4-ylethanol]
– | 39 | – | – | COc1ccc(-c2cc(C(=O)CN3CCOCC3)on2)cc1OC1CCCC1 [XVa, 1-{3-[3-(Cyclopentyloxy)-4-methoxyphenyl]isoxazol-5-yl}-2-morpholin-4-ylethanone hydrochloride]
169 to 171 °C | 7 | – | – | COc1ccc(-c2ccn(CC(=O)N3CCOCC3)c2)cc1OC1CCCC1 [XXIIIa, 2-{3-[3-(cyclopentyloxy)-4-methoxy-phenyl]-pyrrol-1-yl}-1-morpholin-4-yl-ethanone]
108 to 112 °C | 13 | – | – | COc1ccc(-c2ccn(CC(=O)N3CC(C)OC(C)C3)c2)cc1OC1CCCC1 (stereo not drawn) [XXIIIb, 2-{3-[3-(Cyclopentyloxy)-4-methoxy-phenyl]-pyrrol-1-yl}-1-(2,6-dimethyl-morpholin-4-yl)-ethanone]
156 to 158 °C | 9 | – | – | COc1ccc(-c2ccn(CC(=O)N3CCC(O)CC3)c2)cc1OC1CCCC1 [XXIIIc, 2-{3-[3-(Cyclopentyloxy)-4-methoxy-phenyl]-pyrrol-1-yl}-1-(4-hydroxy-piperidin-1-yl)-ethanone]
– | – | 73 | – | OC1CCN(CC(O)Cn2ccc(-c3ccc(OC(F)F)c(OC4CCCC4)c3)n2)CC1 (stereo not drawn) [XXIIc, 1-(3-{3-[3-(cyclopentyloxy)-4-difluoromethoxy-phenyl]-pyrazol-1-yl}-2-hydroxy-propyl)-piperidin-4-ol]
110 to 112 °C | 44 | – | – | COc1ccc(-c2ccn(CCC(=O)N3CCOCC3)c2)cc1OC1CCCC1 [XXIVa, 3-{3-[3-(cyclopentyloxy)-4-methoxy-phenyl]-pyrrol-1-yl}-1-morpholin-4-yl-propan-1-one]
110 to 112 °C | 29 | – | – | COc1ccc(-c2ccn(CCC(=O)N3CCC(O)CC3)c2)cc1OC1CCCC1 [XXIVc]
– | 42 | – | 10 | COc1ccc(-c2ccn(CCC(=O)N3CCOCC3)n2)cc1OC1CCCC1 [XXIa, 4-(3-{3-[3-(cyclopentyloxy)-4-methoxyphenyl]-1H-pyrazol-1-yl}propanoyl)morpholine]
– | 13 | – | – | COc1ccc(-c2c[nH]cc2C(=O)N2CCOCC2)cc1OC1CCCC1 [XXVIa, {4-[3-(Cyclopentyloxy)-4-methoxy-phenyl]-1H-pyrrol-3-yl}-morpholin-4-yl-methanone]
– | 6 | – | – | COc1ccc(-c2c[nH]cc2C(=O)N2CC(C)OC(C)C2)cc1OC1CCCC1 (stereo not drawn) [XXVIb, {4-[3-(Cyclopentyloxy)-4-methoxy-phenyl]-1H-pyrrol-3-yl}-(2,6-dimethyl-morpholin-4-yl)-methanone]
– | 15 | – | – | COc1ccc(-c2c[nH]cc2C(=O)N2CCC(O)CC2)cc1OC1CCCC1 [XXVIc, {4-[3-(Cyclopentyloxy)-4-methoxy-phenyl]-1H-pyrrol-3-yl}-(4-hydroxy-piperidin-1-yl)-methanone]
– | 21 | – | – | COc1ccc(-c2ccn(CC(O)CN3CCOCC3)c2)cc1OC1CCCC1 (stereo not drawn) [XXVa, 1-{3-[3-(Cyclopentyloxy)-4-methoxy-phenyl]-pyrrol-1-yl}-3-morpholin-4-yl-propan-2-ol]
– | 36 | – | – | COc1ccc(-c2ccn(CC(O)CN3CC(C)OC(C)C3)c2)cc1OC1CCCC1 (stereo not drawn) [XXVb, 1-{3-[3-(Cyclopentyloxy)-4-methoxy-phenyl]-pyrrol-1-yl}-3-(2,6-dimethyl-morpholin-4-yl)-propan-2-ol]
– | 5 | – | – | COc1ccc(-c2ccn(CC(O)CN3CCC(O)CC3)c2)cc1OC1CCCC1 (stereo not drawn) [XXVc, 1-(3-{3-[3-(cyclopentyloxy)-4-methoxy-phenyl]-pyrrol-1-yl}-2-hydroxy-propyl)-piperidin-4-ol]

SMILES | melting point | PDE4D3 % inib at 10 μM ([1]; 10 μM, in duplicate) [%] | PDE4D3 % inib at 10 μM [1] [%] | PDE4C2 % inib at 10 μM [2] [%]
COc1ccc(-c2cc(C(=O)CN3CC(C)OC(C)C3)on2)cc1OC1CCCC1 (stereo not drawn) (as salt: hydrochloride) [XVb, 1-{3-[3-(Cyclopentyloxy)-4-methoxyphenyl]isoxazol-5-yl}-2-(2,6-dimethylmorpholin-4-yl)ethanone hydrochloride] | 200 °C (dec.) | – | – | –
COc1ccc(-c2ccn(CC(O)CN3CCOCC3)n2)cc1OC1CCCC1 (stereo not drawn) (as salt: salt) [XVIIIa, 1-{3-[3-(Cyclopentyloxy)-4-methoxyphenyl]-1H-pyrazol-1-yl}-3-morpholin-4-ylpropan-2-ol dihydrocloride] | 162 to 163 °C | – | – | –
COc1ccc(C2=NOC(C(=O)N(CCO)CCO)C2)cc1OC1CCCC1 (stereo not drawn) [XIIIf, 3-[3-(Cyclopentyloxy)-4-methoxyphenyl]-N,N-bis(2-hydroxyethyl)-4,5-dihydroisoxazole-5-carboxamide] | – | 33 | – | –
COc1ccc(-c2cc(C(=O)CN3CC(C)OC(C)C3)on2)cc1OC1CCCC1 (stereo not drawn) [XVb, 1-{3-[3-(Cyclopentyloxy)-4-methoxyphenyl]isoxazol-5-yl}-2-(2,6-dimethylmorpholin-4-yl)ethanone hydrochloride] | – | 13 | – | –
